Where two headings read alike, the source gives them in different places.
Key:
Format in all cases: cell-based
[1] = system: PMN's (polymorphonuclear leukocytes); experiment: Neutrophil oxidative burst; details: Leukocyte, 40 min, normalized to 5×10^−7 M PEP0005
How it was run: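 Human buffy-coat neutrophils (2.5×10^5/well) in HBSS with 0.1% BSA, 5 mM glucose treated with compound premixed with 10 μM hydroethidine for 40 min at RT; fluorescence read at 485/579 nm. Normalized to 5×10^−7 M PEP0005; Rel EC50 is midway between fitted top and bottom, Abs EC50 gives 50% of PEP0005 maximum.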

[2] = system: Primary human epidermal keratinocytes, HeKa; experiment: HeKa cytokine release (IL-8); details: Homo sapiens, read-out: HeKa cytokine release (IL-8) Rel EC50 range
How it was run: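 Seeded cells exposed to compound dilutions for 6 h at 37° C; IL-8 in supernatant quantified by MSD sandwich electrochemiluminescence immunoassay. Effects normalized to positive control (1.5×10^−7 M PEP0005), four-parameter sigmoidal fit; Rel EC50 is concentration midway between fitted top and bottom.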

HeLa cells = experiment: Necrosis assay; details: Homo sapiens, 0.5 h, read-out: HeLa necrosis EC50 range
How it was run: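 HeLa cells treated with compound at 10 μM to 400 μM (final) for 30 min at 37° C., viability then measured by PrestoBlue fluorescence (ex 535/em 630 nm). Normalized to 1% DMSO and 400 μM ingenol mebutate controls; AbsEC50 from four-parameter sigmoidal fit.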

[3] = read-out: Neutrophil oxidative burst Rel EC50 range, PMN from buffy coats, 40 min at RT, hydroethidine fluorescence
[4] = PMN from buffy coats, 40 min at RT, hydroethidine fluorescence, read-out: Neutrophil oxidative burst Rel EC50 range
[5] = HeKa cells, 6 h at 37° C., IL-8 by MSD assay, normalized to 1.5×10^−7 M PEP0005
[6] = HeLa cells, 30 min at 37° C., PrestoBlue, AbsEC50, normalized to 400 μM ingenol mebutate

Q: With CC1=C[C@]23C(=O)[C@@H](C=C(CO)[C@@H](O)[C@]2(O)[C@H]1OC(=O)N(C)c1cccc(F)c1)[C@H]1[C@@H](C[C@H]3C)C1(C)C [Compound 718, Ingenol 3-(N-(3-fluoro-phenyl)-N-methyl-carbamate)] as the compound, how does the EC50 [1, 3] read?
A: < 0.02 µM

Q: And the EC50 ([2]; HEKa, 6 h)?
A: < 0.02 µM

Q: And the EC50 (HeLa cells; HeLa)?
A: 150 to 350 µM

Q: Which results are given for CC1=C[C@]23C(=O)[C@@H](C=C(CO)[C@@H](O)[C@]2(O)[C@H]1OC(=O)N(C)c1cc(C)n(C)n1)[C@H]1[C@@H](C[C@H]3C)C1(C)C [Compound 721, Ingenol 3-(N-(1,5-dimethylpyrazol-3-yl)-N-methyl-carbamate)]?
A: EC50 [1, 3]: 0.02 to 0.1 µM; EC50 ([2]; HEKa, 6 h): 0.02 to 0.1 µM; EC50 (HeLa cells; HeLa): > 350 µM

Q: Which results are given for CC1=C[C@]23C(=O)[C@@H](C=C(CO)[C@@H](O)[C@]2(O)[C@H]1OC(=O)N(C)C1CCCC1)[C@H]1[C@@H](C[C@H]3C)C1(C)C [Compound 722, Ingenol 3-(N-cyclopentyl-N-methyl-carbamate)]?
A: EC50 [1, 3]: < 0.02 µM; EC50 ([2]; HEKa, 6 h): 0.02 to 0.1 µM; EC50 (HeLa cells; HeLa): > 350 µM

Q: CC1=C[C@]23C(=O)[C@@H](C=C(CO)[C@@H](O)[C@]2(O)[C@H]1OC(=O)N(C)C1CC1)[C@H]1[C@@H](C[C@H]3C)C1(C)C [Compound 723, Ingenol 3-(N-cyclopropyl-N-methyl-carbamate)] was tested. Which EC50 [1, 3] did it give?
A: < 0.02 µM

Q: And the EC50 ([2]; HEKa, 6 h)?
A: 0.02 to 0.1 µM

Q: And the EC50 (HeLa cells; HeLa)?
A: > 350 µM

Q: What does the source list for CC1=C[C@]23C(=O)[C@@H](C=C(CO)[C@@H](O)[C@]2(O)[C@H]1OC(=O)N1CCCc2ccccc21)[C@H]1[C@@H](C[C@H]3C)C1(C)C [Compound 726, Ingenol 3-(3,4-dihydro-2H-quinoline-1-carboxylate)]?
A: EC50 [1, 3]: 0.02 to 0.1 µM; EC50 ([2]; HEKa, 6 h): < 0.02 µM; EC50 (HeLa cells; HeLa): < 150 µM

Q: For CC1=C[C@]23C(=O)[C@@H](C=C(CO)[C@@H](O)[C@]2(O)[C@H]1OC(=O)N1CCc2ccccc21)[C@H]1[C@@H](C[C@H]3C)C1(C)C [Compound 727, Ingenol 3-(indoline-1-carboxylate)], which EC50 [1, 3] is on record?
A: < 0.02 µM

Q: What about the EC50 ([2]; HEKa, 6 h) of the same compound?
A: < 0.02 µM

Q: And the EC50 (HeLa cells; HeLa)?
A: < 150 µM

Q: What does the source list for CC1=C[C@]23C(=O)[C@@H](C=C(CO)[C@@H](O)[C@]2(O)[C@H]1OC(=O)N(C)c1ccc(Cl)cc1)[C@H]1[C@@H](C[C@H]3C)C1(C)C [Compound 729, Ingenol 3-(N-(4-chloro-phenyl)-N-methyl-carbamate)]?
A: EC50 [1, 3]: < 0.02 µM; EC50 ([2]; HEKa, 6 h): < 0.02 µM; EC50 (HeLa cells; HeLa): 150 to 350 µM

Q: For CC1=C[C@]23C(=O)[C@@H](C=C(CO)[C@@H](O)[C@]2(O)[C@H]1OC(=O)N(C)c1ccccc1C)[C@H]1[C@@H](C[C@H]3C)C1(C)C [Compound 732, Ingenol 3-(N-methyl-N-(2-methyl-phenyl)-carbamate)], which EC50 [1, 3] is on record?
A: < 0.02 µM

Q: What about the EC50 ([2]; HEKa, 6 h) of the same compound?
A: < 0.02 µM

Q: And the EC50 (HeLa cells; HeLa)?
A: 150 to 350 µM

Q: Which results are given for CCN(C(=O)O[C@H]1C(C)=C[C@]23C(=O)C(C=C(CO)[C@@H](O)[C@]12O)[C@H]1[C@@H](C[C@H]3C)C1(C)C)c1ccccc1 [Compound 734, Ingenol 3-(N-ethyl-N-phenyl-carbamate)]?
A: EC50 [1, 3]: 0.02 to 0.1 µM; EC50 ([2]; HEKa, 6 h): < 0.02 µM; EC50 (HeLa cells; HeLa): 150 to 350 µM

Q: Which results are given for CC1=C[C@]23C(=O)[C@@H](C=C(CO)[C@@H](O)[C@]2(O)[C@H]1OC(=O)N1CC2CCC(CC2)C1)[C@H]1[C@@H](C[C@H]3C)C1(C)C [Compound 736, Ingenol 3-(3-azabicyclo[3.2.2]nonane-3-carboxylate)]?
A: EC50 [1, 4]: < 0.02 µM; EC50 [2, 5]: < 0.02 µM; EC50 (HeLa cells; [6]): 150 to 350 µM

Q: Which EC50 [1, 3] does the source give for CC1=C[C@]23C(=O)[C@@H](C=C(CO)[C@@H](O)[C@]2(O)[C@H]1OC(=O)N1CCOc2ccccc21)[C@H]1[C@@H](C[C@H]3C)C1(C)C [Compound 737, Ingenol 3-(2,3-dihydro-1,4-benzoxazine-4-carboxylate)] here?
A: < 0.02 µM

Q: And the EC50 ([2]; HEKa, 6 h)?
A: < 0.02 µM

Q: What about the EC50 (HeLa cells; HeLa) of the same compound?
A: < 150 µM

Q: How did the EC50 [1, 3] turn out when CC1=C[C@]23C(=O)[C@@H](C=C(CO)[C@@H](O)[C@]2(O)[C@H]1OC(=O)N(C)c1ccccc1F)[C@H]1[C@@H](C[C@H]3C)C1(C)C [Compound 738, Ingenol 3-(N-(2-fluoro-phenyl)-N-methyl-carbamate)] was run?
A: < 0.02 µM

Q: And the EC50 ([2]; HEKa, 6 h)?
A: 0.02 to 0.1 µM

Q: What about the EC50 (HeLa cells; HeLa) of the same compound?
A: 150 to 350 µM

Q: What does the source list for CC1=C[C@]23C(=O)[C@@H](C=C(CO)[C@@H](O)[C@]2(O)[C@H]1OC(=O)N1c2ccccc2OCC1C)[C@H]1[C@@H](C[C@H]3C)C1(C)C (stereo partly drawn) [Compound 739, Ingenol 3-(3-methyl-2,3-dihydro-1,4-benzoxazine-4-carboxylate)]?
A: EC50 [1, 3]: < 0.02 µM; EC50 ([2]; HEKa, 6 h): < 0.02 µM; EC50 (HeLa cells; HeLa): < 150 µM

Q: CC1=C[C@]23C(=O)[C@@H](C=C(CO)[C@@H](O)[C@]2(O)[C@H]1OC(=O)N(C)c1cccc(C)c1)[C@H]1[C@@H](C[C@H]3C)C1(C)C [Compound 743, Ingenol 3-(N-methyl-N-(3-methyl-phenyl)-carbamate)] was tested. Which EC50 [1, 3] did it give?
A: < 0.02 µM

Q: What about the EC50 ([2]; HEKa, 6 h) of the same compound?
A: < 0.02 µM

Q: What about the EC50 (HeLa cells; HeLa) of the same compound?
A: 150 to 350 µM

Q: Which results are given for CC1=C[C@]23C(=O)[C@@H](C=C(CO)[C@@H](O)[C@]2(O)[C@H]1OC(=O)N1CCNc2ccccc21)[C@H]1[C@@H](C[C@H]3C)C1(C)C [Compound 744, Ingenol 3-(3,4-dihydro-2H-quinoxaline-1-carboxylate)]?
A: EC50 [1, 3]: 0.02 to 0.1 µM; EC50 ([2]; HEKa, 6 h): 0.02 to 0.1 µM; EC50 (HeLa cells; HeLa): 150 to 350 µM

Q: Which results are given for CC1=C[C@]23C(=O)[C@@H](C=C(CO)[C@@H](O)[C@]2(O)[C@H]1OC(=O)N1Cc2ccccc2C1)[C@H]1[C@@H](C[C@H]3C)C1(C)C [Compound 745, Ingenol 3-(isoindoline-2-carboxylate)]?
A: EC50 [1, 3]: < 0.02 µM; EC50 ([2]; HEKa, 6 h): < 0.02 µM; EC50 (HeLa cells; HeLa): 150 to 350 µM

Q: For CC1=C[C@]23C(=O)[C@@H](C=C(CO)[C@@H](O)[C@]2(O)[C@H]1OC(=O)N(C)CC1CCOCC1)[C@H]1[C@@H](C[C@H]3C)C1(C)C [Compound 746, Ingenol 3-(N-methyl-N-(tetrahydropyran-4-ylmethyl)-carbamate)], which EC50 [1, 3] is on record?
A: 0.02 to 0.1 µM

Q: And the EC50 ([2]; HEKa, 6 h)?
A: > 0.1 µM

Q: And the EC50 (HeLa cells; HeLa)?
A: > 350 µM

Q: With CC1=C[C@]23C(=O)[C@@H](C=C(CO)[C@@H](O)[C@]2(O)[C@H]1OC(=O)N(C)C1CCOCC1)[C@H]1[C@@H](C[C@H]3C)C1(C)C [Compound 747, Ingenol 3-(N-methyl-N-(tetrahydropyran-4-yl)-carbamate)] as the compound, how does the EC50 [1, 3] read?
A: 0.02 to 0.1 µM

Q: What about the EC50 ([2]; HEKa, 6 h) of the same compound?
A: > 0.1 µM

Q: What about the EC50 (HeLa cells; HeLa) of the same compound?
A: > 350 µM

Q: How did the EC50 [1, 3] turn out when COc1cccc(N(C)C(=O)O[C@H]2C(C)=C[C@]34C(=O)[C@@H](C=C(CO)[C@@H](O)[C@]23O)[C@H]2[C@@H](C[C@H]4C)C2(C)C)c1 [Compound 748, Ingenol 3-(N-methyl-N-(3-methoxy-phenyl)-carbamate)] was run?
A: < 0.02 µM

Q: What about the EC50 ([2]; HEKa, 6 h) of the same compound?
A: 0.02 to 0.1 µM

Q: What about the EC50 (HeLa cells; HeLa) of the same compound?
A: 150 to 350 µM

Q: With CC1=C[C@]23C(=O)[C@@H](C=C(CO)[C@@H](O)[C@]2(O)[C@H]1OC(=O)N(C)c1nc(C)cs1)[C@H]1[C@@H](C[C@H]3C)C1(C)C [Compound 752, Ingenol 3-(N-methyl-N-(4-methylthiazol-2-yl)-carbamate)] as the compound, how does the EC50 [1, 3] read?
A: < 0.02 µM

Q: And the EC50 ([2]; HEKa, 6 h)?
A: < 0.02 µM

Q: What about the EC50 (HeLa cells; HeLa) of the same compound?
A: 150 to 350 µM

Q: With CC1=C[C@]23C(=O)[C@@H](C=C(CO)[C@@H](O)[C@]2(O)[C@H]1OC(=O)N(C)c1ccc(C#N)cc1)[C@H]1[C@@H](C[C@H]3C)C1(C)C [Compound 753, Ingenol 3-(N-(4-cyano-phenyl)-N-methyl-carbamate)] as the compound, how does the EC50 [1, 3] read?
A: 0.02 to 0.1 µM

Q: And the EC50 ([2]; HEKa, 6 h)?
A: 0.02 to 0.1 µM

Q: What about the EC50 (HeLa cells; HeLa) of the same compound?
A: 150 to 350 µM

Q: Which results are given for C/C=C(/C)C(=O)O[C@H]1C(C)=C[C@]23C(=O)[C@@H](C=C(CO)[C@@H](O)[C@]12O)[C@H]1[C@@H](C[C@H]3C)C1(C)C [Ingenol mebutate, Ingenol-3-angelate, reference compound]?
A: EC50 [1, 4]: < 0.02 µM; EC50 [2, 5]: < 0.02 µM; EC50 (HeLa cells; [6]): 150 to 350 µM
